Experimental data published in PubChem BioAssay AID244 (DTP/NCI, 2004).
“And” between values parts separate entries of the source, which are not always exact repeats. Identical values can stand only once. Records with an inconclusive call do not appear.

Tested on: CD2F1 mice, Lymphoma 8 ip, survival T/C
Test: NCI In Vivo Anticancer Drug Screen. Data for tumor model Lymphoma 8 (intraperitoneal) in CD2F1 (CDF1) mice
Conditions: higher = longer survival
Experimental: The antitumor activity of compounds was measured in mice bearing transplantable tumors. Survival or tumor size were measured and the results are expressed as the measurement made in the treated group (T) divided by the measurement made in the vehicle treated control group (C). The tumor model used in this assay is Lymphoma 8 (intraperitoneal) in CD2F1 (CDF1) mice

[1] = endpoint: median survival time, dose: 0.5 mg/kg/injection, schedule: Q01DX009 (ip), vehicle: saline
[2] = endpoint: median survival time, dose: 1.0 mg/kg/injection, schedule: Q01DX009 (ip), vehicle: saline
[3] = endpoint: median survival time, dose: 2.0 mg/kg/injection, schedule: Q01DX009 (ip), vehicle: saline

## O=C1C=C(C2OC(CO)C(O)C2O)C(=O)N1 (stereo not given)
endpoint: median survival time, dose: 2.0 mg/kg/injection, schedule: Q01DX010 (ip), vehicle: saline
  T/C: 92 % of control
endpoint: median survival time, dose: 4.0 mg/kg/injection, schedule: Q01DX010 (ip), vehicle: saline
  T/C: 92 % of control
endpoint: median survival time, dose: 8.0 mg/kg/injection, schedule: Q01DX005 (ip), vehicle: saline
  T/C: 75 % of control
endpoint: median survival time, dose: 8.0 mg/kg/injection, schedule: Q01DX010 (ip), vehicle: saline
  T/C: 100 % of control
endpoint: median survival time, dose: 16.0 mg/kg/injection, schedule: Q01DX005 (ip), vehicle: saline
  T/C: 43 % of control
endpoint: median survival time, dose: 32.0 mg/kg/injection, schedule: Q01DX005 (ip), vehicle: saline
  T/C: 17 % of control

## O=CC(S)CO (stereo not given)
endpoint: median survival time, dose: 25.0 mg/kg/injection, schedule: Q01DX010 (ip), vehicle: saline
  T/C: 92 % of control
endpoint: median survival time, dose: 50.0 mg/kg/injection, schedule: Q01DX010 (ip), vehicle: saline
  T/C: 92 % of control
endpoint: median survival time, dose: 100.0 mg/kg/injection, schedule: Q01DX010 (ip), vehicle: saline
  T/C: 100 % of control

## O=C1C=CC(=O)N1
endpoint: median survival time, dose: 0.25 mg/kg/injection, schedule: Q01DX009 (ip), vehicle: saline
  T/C: 98 % of control and 109 % of control
[1]
  T/C: 100 % of control and 102 % of control
[2]
  T/C: 95 % of control and 102 % of control
[3]
  T/C: 94 % of control and 95 % of control

## CN1C(=O)C=CC1=O
[1]
  T/C: 97 % of control and 102 % of control
[2]
  T/C: 102 % of control and 103 % of control
[3]
  T/C: 94 % of control and 100 % of control
endpoint: median survival time, dose: 4.0 mg/kg/injection, schedule: Q01DX009 (ip), vehicle: saline
  T/C: 94 % of control

## NC(CS(N)(=O)=O)C(=O)O (stereo not given)
endpoint: median survival time, dose: 50.0 mg/kg/injection, schedule: Q01DX005 (ip), vehicle: saline
  T/C: 92 % of control
endpoint: median survival time, dose: 100.0 mg/kg/injection, schedule: Q01DX005 (ip), vehicle: saline
  T/C: 92 % of control
endpoint: median survival time, dose: 200.0 mg/kg/injection, schedule: Q01DX005 (ip), vehicle: saline
  T/C: 96 % of control and 97 % of control
endpoint: median survival time, dose: 400.0 mg/kg/injection, schedule: Q01DX005 (ip), vehicle: saline
  T/C: 92 % of control and 94 % of control

## CC[C@H]1CN2CCc3cc(OC)c(OC)cc3[C@@H]2C[C@@H]1C[C@H]1NCCc2cc(OC)c(OC)cc21
endpoint: median survival time, dose: 1.87 mg/kg/injection, schedule: Q04DX003 (ip), vehicle: saline
  T/C: 107 % of control
endpoint: median survival time, dose: 2.5 mg/kg/injection, schedule: Q04DX003 (ip), vehicle: saline
  T/C: 103 % of control
endpoint: median survival time, dose: 3.7 mg/kg/injection, schedule: Q04DX003 (ip), vehicle: water
  T/C: 107 % of control
endpoint: median survival time, dose: 3.75 mg/kg/injection, schedule: Q04DX003 (ip), vehicle: saline
  T/C: 111 % of control
endpoint: median survival time, dose: 5.0 mg/kg/injection, schedule: Q04DX003 (ip), vehicle: saline
  T/C: 100 % of control
endpoint: median survival time, dose: 7.5 mg/kg/injection, schedule: Q04DX003 (ip), vehicle: saline
  T/C: 111 % of control
endpoint: median survival time, dose: 7.5 mg/kg/injection, schedule: Q04DX003 (ip), vehicle: water
  T/C: 107 % of control
endpoint: median survival time, dose: 10.0 mg/kg/injection, schedule: Q04DX003 (ip), vehicle: saline
  T/C: 100 % of control
endpoint: median survival time, dose: 15.0 mg/kg/injection, schedule: Q04DX003 (ip), vehicle: saline
  T/C: 118 % of control
endpoint: median survival time, dose: 15.0 mg/kg/injection, schedule: Q04DX003 (ip), vehicle: water
  T/C: 107 % of control
endpoint: median survival time, dose: 20.0 mg/kg/injection, schedule: Q04DX003 (ip), vehicle: saline
  T/C: 103 % of control

## CC/C(=C(/CC)c1ccc(O)cc1)c1ccc(O)cc1
endpoint: survival time, mean or median, dose: 12.5 mg/kg/injection, schedule: Q01DX010 (sc), vehicle: steriod suspending solution
  T/C: 90 % of control
endpoint: survival time, mean or median, dose: 25.0 mg/kg/injection, schedule: Q01DX010 (sc), vehicle: steriod suspending solution
  T/C: 90 % of control
endpoint: survival time, mean or median, dose: 50.0 mg/kg/injection, schedule: Q01DX010 (sc), vehicle: steriod suspending solution
  T/C: 90 % of control and 95 % of control
endpoint: survival time, mean or median, dose: 100.0 mg/kg/injection, schedule: Q01DX010 (sc), vehicle: steriod suspending solution
  T/C: 90 % of control

## CCSCCC(N)C(=O)O (stereo not given)
endpoint: median survival time, dose: 37.5 mg/kg/injection, schedule: Q01DX005 (ip), vehicle: saline
  T/C: 107 % of control and 109 % of control
endpoint: median survival time, dose: 75.0 mg/kg/injection, schedule: Q01DX005 (ip), vehicle: saline
  T/C: 100 % of control and 103 % of control
endpoint: median survival time, dose: 150.0 mg/kg/injection, schedule: Q01DX005 (ip), vehicle: saline
  T/C: 81 % of control

## Nc1ncn(C2OC(CO)C(O)C2O)c(=O)n1 (stereo not given)
endpoint: median survival time, dose: 0.75 mg/kg/injection, schedule: Q01DX005 (ip), vehicle: saline
  T/C: 116 % of control
endpoint: median survival time, dose: 3.0 mg/kg/injection, schedule: Q01DX005 (ip), vehicle: saline
  T/C: 158 % of control

## NC(C/[N+]([O-])=N/O)C(=O)O (stereo not given)
endpoint: median survival time, dose: 12.5 mg/kg/injection, schedule: Q01DX009 (ip), vehicle: other
  T/C: 119 % of control
endpoint: median survival time, dose: 12.5 mg/kg/injection, schedule: Q01DX009 (ip), vehicle: saline + alcohol
  T/C: 113 % of control
endpoint: median survival time, dose: 12.5 mg/kg/injection, schedule: Q01DX009 (ip), vehicle: water
  T/C: 116 % of control
endpoint: median survival time, dose: 13.2 mg/kg/injection, schedule: Q01DX010 (ip), vehicle: alkali diluted with saline
  T/C: 174 % of control
endpoint: median survival time, dose: 19.8 mg/kg/injection, schedule: Q01DX010 (ip), vehicle: alkali diluted with saline
  T/C: 197 % of control
endpoint: median survival time, dose: 25.0 mg/kg/injection, schedule: Q01DX009 (ip), vehicle: other
  T/C: 120 % of control
endpoint: median survival time, dose: 25.0 mg/kg/injection, schedule: Q01DX009 (ip), vehicle: saline + alcohol
  T/C: 116 % of control
endpoint: median survival time, dose: 25.0 mg/kg/injection, schedule: Q01DX009 (ip), vehicle: water
  T/C: 122 % of control
endpoint: median survival time, dose: 29.6 mg/kg/injection, schedule: Q01DX010 (ip), vehicle: alkali diluted with saline
  T/C: 211 % of control
endpoint: median survival time, dose: 44.4 mg/kg/injection, schedule: Q01DX010 (ip), vehicle: alkali diluted with saline
  T/C: 180 % of control
endpoint: median survival time, dose: 50.0 mg/kg/injection, schedule: Q01DX009 (ip), vehicle: other
  T/C: 98 % of control
endpoint: median survival time, dose: 50.0 mg/kg/injection, schedule: Q01DX009 (ip), vehicle: water
  T/C: 150 % of control
endpoint: median survival time, dose: 66.7 mg/kg/injection, schedule: Q01DX010 (ip), vehicle: alkali diluted with saline
  T/C: 121 % of control
endpoint: median survival time, dose: 100.0 mg/kg/injection, schedule: Q01DX009 (ip), vehicle: other
  T/C: 92 % of control
endpoint: median survival time, dose: 100.0 mg/kg/injection, schedule: Q01DX009 (ip), vehicle: saline + alcohol
  T/C: 103 % of control
endpoint: median survival time, dose: 100.0 mg/kg/injection, schedule: Q01DX009 (ip), vehicle: water
  T/C: 91 % of control
endpoint: median survival time, dose: 100.0 mg/kg/injection, schedule: Q01DX010 (ip), vehicle: alkali diluted with saline
  T/C: 109 % of control

## CC[C@]1(O)C[C@H]2CN(CCc3c([nH]c4ccccc34)[C@@](C(=O)OC)(c3cc4c(cc3OC)N(C=O)[C@H]3[C@@](O)(C(=O)OC)[C@H](OC(C)=O)[C@]5(CC)C=CCN6CC[C@]43[C@@H]65)C2)C1
endpoint: median survival time, dose: 0.03 mg/kg/injection, schedule: Q01DX005 (ip), vehicle: saline
  T/C: 96 % of control and 104 % of control and 109 % of control
endpoint: median survival time, dose: 0.06 mg/kg/injection, schedule: Q01DX005 (ip), vehicle: saline
  T/C: 100 % of control and 103 % of control and 105 % of control
endpoint: median survival time, dose: 0.12 mg/kg/injection, schedule: Q01DX005 (ip), vehicle: saline
  T/C: 115 % of control and 118 % of control
endpoint: median survival time, dose: 0.13 mg/kg/injection, schedule: Q01DX005 (ip), vehicle: saline
  T/C: 116 % of control

## C[C@]12C=CC(=O)C=C1CC[C@@H]1[C@@H]2C(=O)C[C@@]2(C)[C@H]1CC[C@]2(O)C(=O)CO
endpoint: median survival time, dose: 12.5 mg/kg/injection, schedule: Q01DX005 (sc), vehicle: steriod suspending solution
  T/C: 105 % of control and 107 % of control and 108 % of control
endpoint: median survival time, dose: 25.0 mg/kg/injection, schedule: Q01DX005 (sc), vehicle: steriod suspending solution
  T/C: 96 % of control and 104 % of control and 108 % of control
endpoint: median survival time, dose: 50.0 mg/kg/injection, schedule: Q01DX005 (sc), vehicle: steriod suspending solution
  T/C: 96 % of control and 99 % of control and 100 % of control
endpoint: median survival time, dose: 100.0 mg/kg/injection, schedule: Q01DX005 (sc), vehicle: steriod suspending solution
  T/C: 100 % of control and 103 % of control and 104 % of control
endpoint: median survival time, dose: 200.0 mg/kg/injection, schedule: Q01DX005 (sc), vehicle: steriod suspending solution
  T/C: 111 % of control and 112 % of control

## O=c1[nH]c(=O)n(C2CC(O)C(CO)O2)cc1F (stereo not given)
endpoint: survival time, mean or median, dose: 5.0 mg/kg/injection, schedule: Q01DX010 (ip), vehicle: saline
  T/C: 104 % of control
endpoint: survival time, mean or median, dose: 10.0 mg/kg/injection, schedule: Q01DX010 (ip), vehicle: saline
  T/C: 109 % of control
endpoint: survival time, mean or median, dose: 20.0 mg/kg/injection, schedule: Q01DX010 (ip), vehicle: saline
  T/C: 113 % of control
